Source: patent publication US20230047816A1 (priority 2018, published 2023)

Biological target: Recombinant full length human PFKFB3 (Homo sapiens, UniProt Q16875)
Assay: PFKFB3 kinase activity assay (ADP production, ADP-Glo)

Chain of Recombinant full length human PFKFB3 (Q16875 whole entry): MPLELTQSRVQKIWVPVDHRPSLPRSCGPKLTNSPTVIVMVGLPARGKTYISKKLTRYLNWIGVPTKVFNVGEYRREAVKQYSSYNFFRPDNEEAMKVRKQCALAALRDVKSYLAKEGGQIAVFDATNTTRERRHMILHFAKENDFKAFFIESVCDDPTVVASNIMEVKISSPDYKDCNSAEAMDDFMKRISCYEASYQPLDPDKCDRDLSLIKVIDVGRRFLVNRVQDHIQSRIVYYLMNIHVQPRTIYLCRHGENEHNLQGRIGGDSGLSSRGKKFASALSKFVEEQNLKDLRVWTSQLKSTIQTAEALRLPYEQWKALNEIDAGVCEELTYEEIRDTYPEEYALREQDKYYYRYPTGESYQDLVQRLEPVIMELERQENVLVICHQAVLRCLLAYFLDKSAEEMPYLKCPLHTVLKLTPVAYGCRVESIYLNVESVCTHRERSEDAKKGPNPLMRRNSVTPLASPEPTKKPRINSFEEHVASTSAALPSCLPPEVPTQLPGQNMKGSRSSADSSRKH

IC50 [nM]	SMILES
< 500	O=C(O)c1cc(C(=O)Nc2cc(N3CC4CCC3C4)ccc2C(=O)O)c(C(=O)O)cc1O (centres unmarked) [Example 61, 2-[(5-{2-azabicyclo[2.2.1]heptan-2-yl}-2-carboxyphenyl)carbamoyl]-5-hydroxybenzene-1,4-dicarboxylic acid]
< 500	O=C(O)c1ccc2c(c1)C(=O)N(c1cc(-c3cccs3)ccc1C(=O)O)C2=O [Example 48, 2-(2-Carboxy-5-thiophen-2-yl-phenyl)-1,3-dioxo-2,3-dihydro-1H-isoindole-5-carboxylic Acid]
500 to 2000	O=C(O)c1ccc2c(c1)C(=O)N(c1cc(-c3ccccc3)ccc1-c1nnn[nH]1)C2=O [Example 43]
< 500	O=C(O)c1ccc(-c2ccc(F)c(F)c2)cc1NC(=O)c1ccc(-c2cnn[nH]2)cc1C(=O)O [Example 22, 3-[2-carboxy-4-(1H-1,2,3-triazol-5-yl)benzamido]-3′,4′-difluoro-[1,1′-biphenyl]-4-carboxylic acid]
2000 to 5000	CN(C)C(=O)c1[nH]nnc1-c1ccc2c(c1)C(=O)N(c1cc(-c3ccc(F)c(F)c3)ccc1C(=O)O)C2 [compound 165, 3-(6-(5-(dimethylcarbamoyl)-1H-1,2,3-triazol-4-yl)-1-oxoisoindolin-2-yl)-3′,4′-difluorobiphenyl-4-carboxylic acid]
500 to 2000	O=C(O)c1ccc(NC(=O)c2cccc(-c3ccccc3)c2)c(C(=O)O)c1 [Example 17, 4-{[1,1′-biphenyl]-3-amido}benzene-1,3-dicarboxylic acid]
< 500	CC1(C)CCN(c2ccc(C(=O)O)c(NC(=O)c3cc(O)c(C(=O)O)cc3C(=O)O)c2)CC1 [Example 53, 4-{[2-carboxy-5-(4,4-dimethylpiperidin-1-yl)phenyl]carbamoyl}-6-hydroxybenzene-1,3-dicarboxylic acid]
500 to 2000	COc1ccc(-c2nnn[nH]2)c(N2C(=O)c3ccc(C(=O)O)cc3C2=O)c1 [Example 47, 2-[5-Methoxy-2-(1H-tetrazol-5-yl)phenyl]-1,3-dioxo-2,3-dihydro-1H-isoindole-5-carboxylic acid]
< 500	O=C(O)c1cc(C(=O)O)c(C(=O)Nc2cc(-c3ccc(F)c(F)c3)ccc2C(=O)O)cc1Cl [Example 45, 4-({4-carboxy-3′,4′-difluoro-[1,1′-biphenyl]-3-yl}carbamoyl)-6-chlorobenzene-1,3-dicarboxylic acid]
< 20000	CC(=O)OCCOC(=O)c1ccc(-c2ccc(F)c(F)c2)cc1N1C(=O)c2ccc(-c3cnn[nH]3)cc2C1=O [compound 168, 2-(acetyloxy)ethyl 3-[1,3-dioxo-5-(1H-1,2,3-triazol-5-yl)-2,3-dihydro-1H-isoindol-2-yl]-3′,4′-difluoro[1,1′-biphenyl]-4-carboxylate]
5000 to 20000	NC(=O)c1ccc2c(c1)C(=O)N(c1cc(-c3ccc(F)c(F)c3)ccc1C(=O)O)C2 [compound 160, 3-(6-carbamoyl-1-oxoisoindolin-2-yl)-3′,4′-difluorobiphenyl-4-carboxylic acid]
500 to 2000	COc1ccc(-c2c(C)sc(N3C(=O)c4ccc(C(=O)N[C@@H](Cc5c[nH]c6ccccc56)C(=O)O)cc4C3=O)c2C#N)cc1 [Example 17]
< 500	CC(CN(C)C)OC(=O)c1ccc(-c2ccc(Cl)cc2Cl)cc1NC(=O)c1cc(O)c(C(=O)O)cc1C(=O)O (centres unmarked) [Example 65, 4-{[2′,4′-dichloro-4-({[1-(dimethylamino)propan-2-yl]oxy}carbonyl)-[1,1′-biphenyl]-3-yl]carbamoyl}-6-hydroxybenzene-1,3-dicarboxylic acid]

More lines, now with the values behind:

SMILES	IC50 [nM]
NC(=O)c1ccc(-c2ccc(F)c(F)c2)cc1N1Cc2ccc(-c3nnn[nH]3)cc2C1=O [Compound 101, 3′,4′-Difluoro-3-[1-oxo-6-(1H-tetrazol-5-yl)-1,3-dihydroisoindol-2-yl]biphenyl-4-carboxylic acid amide]	5000 to 20000
CN(C)CCOC(=O)c1ccc2c(c1)C(=O)N(c1cc(-c3ccc(F)c(F)c3)ccc1C(=O)O)C2 [Compound 129, 2-(4-Carboxy-3′,4′-difluorobiphenyl-3-yl)-3-oxo-2,3-dihydro-1H-isoindole-5-carboxylic acid 2-dimethylamino-ethyl ester]	< 20000
CN(C)CCCOC(=O)c1ccc(-c2ccc(F)c(F)c2)cc1N1Cc2ccc(C(=O)NS(C)(=O)=O)cc2C1=O [Compound 124, 3′,4′-Difluoro-3-(6-methanesulfonylaminocarbonyl-1-oxo-1,3-dihydro-isoindol-2-yl)-biphenyl-4-carboxylic acid 3-dimethylamino-propyl ester]	< 20000
O=C(O)c1ccc(-c2ccc(F)c(F)c2)cc1N1Cc2ccc(-c3nnn[nH]3)cc2C1=O [Compound 100, 3′,4′-Difluoro-3-[1-oxo-6-(1H-tetrazol-5-yl)-1,3-dihydroisoindol-2-yl]biphenyl-4-carboxylic Acid]	500 to 2000
O=C(OCCN1CCCC1)c1ccc(-c2ccc(F)c(F)c2)cc1N1Cc2ccc(-c3c[nH]nn3)cc2C1=O [Compound 115, 3′,4′-Difluoro-3-[1-oxo-6-(1H-[1,2,3]triazol-4-yl)-1,3-dihydroisoindol-2-yl]biphenyl-4-carboxylic acid 2-pyrrolidin-1-yl-ethyl ester]	< 20000
COc1ccc(-c2c(C)sc(N3C(=O)c4ccc(C(=O)NS(C)(=O)=O)cc4C3=O)c2C#N)cc1 [Example 14]	500 to 2000
COC(=O)c1ccc(-c2ccc(F)c(F)c2)cc1N1Cc2ccc(-c3c[nH]nn3)cc2C1=O [Compound 110, 3′,4′-Difluoro-3-[1-oxo-6-(1H-[1,2,3]triazol-4-yl)-1,3-dihydroisoindol-2-yl]biphenyl-4-carboxylic acid methyl ester]	< 20000
COc1ccc(-c2c(C)sc(NC(=O)c3ccc(C(=O)O)cc3C(=O)NCCN(C)C)c2C#N)cc1 [Example 14, 4-{[3-cyano-4-(4-methoxyphenyl)-5-methylthiophen-2-yl]carbamoyl}-3-{[2-(dimethylamino)ethyl]carbamoyl}benzoic acid]	< 20000
Cc1cnc(N2C(=O)c3ccc(-c4c[nH]nn4)cc3C2=O)cc1-c1ccc(F)cc1F [Compound 90, 2-[4-(2,4-Difluoro-phenyl)-5-methyl-pyridin-2-yl]-5-(1H-[1,2,3]triazol-4-yl)-isoindole-1,3-dione]	2000 to 5000
COC(=O)c1cc(-c2ccccc2)ccc1N1C(=O)c2ccc(C(=O)O)cc2C1=O [Example 12, 2-(3-Methoxycarbonylbiphenyl-4-yl)-1,3-dioxo-2,3-dihydro-1H-isoindole-5-carboxylic acid]	2000 to 5000
CN(C)CCOC(=O)c1ccc(-c2ccc(F)c(F)c2)cc1N1Cc2ccc(-c3c[nH]nn3)cc2C1=O [Compound 112, 3′,4′-Difluoro-3-[1-oxo-6-(1H-[1,2,3]triazol-4-yl)-1,3-dihydroisoindol-2-yl]biphenyl-4-carboxylic acid 2-dimethylamino-ethyl ester]	< 20000
Cc1ccc(S(=O)(=O)Nc2ccc3c(c2)C(=O)N(c2cc(-c4ccc(F)c(F)c4)ccc2C(=O)O)C3)cc1 [Compound 132, 3′,4′-Difluoro-3-[1-oxo-6-(toluene-4-sulfonylamino)-1,3-dihydro-isoindol-2-yl]-biphenyl-4-carboxylic acid]	5000 to 20000
NC(=O)c1ccc(-c2ccccc2)cc1N1C(=O)c2ccc(-c3c[nH]nn3)cc2C1=O [Compound 93, 3-[1,3-Dioxo-5-(1H-[1,2,3]triazol-4-yl)-1,3-dihydroisoindol-2-yl]biphenyl-4-carboxylic acid amide]	5000 to 20000
